{
  "source": "paper PMC6934184",
  "about": "“Selective DNA-PKcs inhibition extends the therapeutic index of localized radiotherapy and chemotherapy” (The Journal of Clinical Investigation, 2019)",
  "molecular_target": "T1, ABL1 E255K (Homo sapiens, UniProt P00519, E255K)",
  "T1 construct": "purchased Thermo Fisher Scientific (Life Technologies) SelectScreen",
  "T1 sequence (P00519 whole entry E255K)": "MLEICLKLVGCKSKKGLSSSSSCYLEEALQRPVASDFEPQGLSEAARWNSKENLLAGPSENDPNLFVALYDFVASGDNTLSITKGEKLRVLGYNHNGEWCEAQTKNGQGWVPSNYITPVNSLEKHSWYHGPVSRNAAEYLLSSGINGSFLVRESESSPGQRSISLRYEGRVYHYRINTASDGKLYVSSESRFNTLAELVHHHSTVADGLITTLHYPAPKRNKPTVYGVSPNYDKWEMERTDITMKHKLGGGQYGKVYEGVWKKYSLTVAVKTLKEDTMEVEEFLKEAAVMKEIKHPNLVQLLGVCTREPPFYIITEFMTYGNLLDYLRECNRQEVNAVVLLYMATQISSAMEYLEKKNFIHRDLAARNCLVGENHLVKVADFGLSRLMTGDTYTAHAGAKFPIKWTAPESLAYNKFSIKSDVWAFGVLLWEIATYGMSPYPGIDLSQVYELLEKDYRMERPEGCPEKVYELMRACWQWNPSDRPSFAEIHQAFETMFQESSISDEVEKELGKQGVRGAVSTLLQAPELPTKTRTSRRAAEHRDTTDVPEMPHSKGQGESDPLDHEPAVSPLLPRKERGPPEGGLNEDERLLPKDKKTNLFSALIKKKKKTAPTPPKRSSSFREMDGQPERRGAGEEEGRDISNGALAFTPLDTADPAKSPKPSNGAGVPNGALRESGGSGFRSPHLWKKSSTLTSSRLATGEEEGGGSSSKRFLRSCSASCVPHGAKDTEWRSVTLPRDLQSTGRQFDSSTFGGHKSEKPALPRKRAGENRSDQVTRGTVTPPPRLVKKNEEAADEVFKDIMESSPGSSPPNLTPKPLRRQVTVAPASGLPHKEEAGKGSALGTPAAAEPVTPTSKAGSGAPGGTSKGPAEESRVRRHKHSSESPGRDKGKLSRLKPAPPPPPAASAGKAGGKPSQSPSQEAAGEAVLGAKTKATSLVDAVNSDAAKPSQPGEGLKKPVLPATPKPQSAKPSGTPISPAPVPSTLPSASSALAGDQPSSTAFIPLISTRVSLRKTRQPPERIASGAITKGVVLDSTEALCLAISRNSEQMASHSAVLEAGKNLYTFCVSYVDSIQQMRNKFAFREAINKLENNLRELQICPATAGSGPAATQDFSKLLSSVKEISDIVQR",
  "test": "SelectScreen Z'LYTE",
  "format": "biochemical",
  "how_it_was_run": "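Percent values come from Thermo SelectScreen profiling of NU5455, combining activity and binding assays. CSF1R was run in Z'LYTE format at Km app ATP, and CAMK1 in Adapta format with ATP listed at 10.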",
  "data": [
    {"smiles": "CN(C(=O)CN1CCOCC1)c1ccc2sc3c(-c4cccc5c(=O)cc(N6CC7CCC(C6)O7)oc45)cccc3c2c1", "note": "[NU5455]", "values": [
      {"measurement": "inhibition at 1 µM", "result": -6.6, "unit": "%"}
    ]}
  ]
}
